Experimental data as given in US10662138B2, “Herbicidal propynyl-phenyl compounds” (Syngenta Participations AG, priority 2014, dated 2020).

Legend:
Format in all cases: in vivo
Abutilon theophrasti = experiment: Glasshouse assay for herbicidal activity, post-emergence, ABUTH; settings: visual 13 days after application, 100%=total damage; for pest or weed control at 30 g/ha / pest or weed control at 250 g/ha: Abutilon theophrasti, 312 h, read-out: Percentage phytotoxicity ABUTH
Procedure: (§1) Seeds of a variety of test plant species were sown in standard soil ** in pots. After cultivation for one day (pre-emergence) or after 8 days cultivation (post-emergence) under controlled conditions in a glasshouse (at 24/16° C., day/night; 14 hours light; 65% humidity), the plants were sprayed with an aqueous spray solution derived from the formulation of the technical active ingredient (the test herbicide) in acetone/water (50:50) solution containing 0.5% Tween 20 (polyoxyethylene sorbitan monolaurate, CAS Reg. No. 9005-64-5). The test plants were then grown on under controlled conditions in a glasshouse (at 24/16° C., day/night; 14 hours light; 65% humidity) and watered twice daily. 13 Days after application of the test herbicide, for pre- and post-emergence, the test was evaluated visually for percentage phytotoxicity to each plant (where 100%=total damage to plant; 0%=no damage to plant). Generally, each test herbicide is only tested on 1 plant per plant species for each application rate tested and for each application timing. The “standard soil” in Biological Example 1 is usually a “sand” or “sandy loam” type of soil. Biological Example 1—Post-Emergence Application—Herbicidal Activity Results (Percentage Phytotoxicity) Dicotyledonous weeds: ABUTH=Abutilon theophrasti; AMARE=Amaranthus retroflexus. Grassy monocotyledonous weeds: SETFA=Setaria faberi; ALOMY=Alopecurus myosuroides; ECHCG=Echinochloa crus-galli; ZEAMX=Zea mays (corn, maize, e.g. volunteer corn).

Alopecurus myosuroides = experiment: Glasshouse assay for herbicidal activity, post-emergence, ALOMY; settings: visual 13 days after application, 100%=total damage; for pest or weed control at 30 g/ha / pest or weed control at 250 g/ha: Alopecurus myosuroides, 312 h, read-out: Percentage phytotoxicity ALOMY
Procedure: as §1

Setaria faberi = experiment: Glasshouse assay for herbicidal activity, post-emergence, SETFA; settings: visual 13 days after application, 100%=total damage; for pest or weed control at 30 g/ha / pest or weed control at 250 g/ha: Setaria faberi, 312 h, read-out: Percentage phytotoxicity SETFA
Procedure: as §1

[1] = system: Zea mays (corn, maize, e.g. volunteer corn); experiment: Glasshouse assay for herbicidal activity, post-emergence, ZEAMX; settings: visual 13 days after application, 100%=total damage; for pest or weed control at 30 g/ha / pest or weed control at 250 g/ha: Zea mays, 312 h, read-out: Percentage phytotoxicity ZEAMX
Procedure: as §1

Amaranthus retroflexus = experiment: Glasshouse assay for herbicidal activity, post-emergence, AMARE; settings: visual 13 days after application, 100%=total damage; for pest or weed control at 30 g/ha / pest or weed control at 250 g/ha: Amaranthus retroflexus, 312 h, read-out: Percentage phytotoxicity AMARE
Procedure: as §1

Echinochloa crus-galli = experiment: Glasshouse assay for herbicidal activity, post-emergence, ECHCG; settings: visual 13 days after application, 100%=total damage; for pest or weed control at 30 g/ha / pest or weed control at 250 g/ha: Echinochloa crus-galli, 312 h, read-out: Percentage phytotoxicity ECHCG
Procedure: as §1

Compound | Percentage phytotoxicity ABUTH (Abutilon theophrasti; 250 g/ha) [%] | Percentage phytotoxicity ALOMY (Alopecurus myosuroides; 250 g/ha) [%] | Percentage phytotoxicity SETFA (Setaria faberi; 250 g/ha) [%] | Percentage phytotoxicity ZEAMX ([1]; 250 g/ha) [%] | Percentage phytotoxicity AMARE (Amaranthus retroflexus; 250 g/ha) [%] | Percentage phytotoxicity ECHCG (Echinochloa crus-galli; 250 g/ha) [%] | pest or weed control at 30 g/ha (Abutilon theophrasti) [%] | pest or weed control at 250 g/ha (Abutilon theophrasti; 250 g/ha) [%] | pest or weed control at 30 g/ha (Alopecurus myosuroides) [%] | pest or weed control at 250 g/ha (Alopecurus myosuroides; 250 g/ha) [%] | pest or weed control at 30 g/ha (Setaria faberi) [%] | pest or weed control at 250 g/ha (Setaria faberi; 250 g/ha) [%] | pest or weed control at 30 g/ha [1] [%] | pest or weed control at 250 g/ha ([1]; 250 g/ha) [%] | pest or weed control at 30 g/ha (Amaranthus retroflexus) [%] | pest or weed control at 250 g/ha (Amaranthus retroflexus; 250 g/ha) [%] | pest or weed control at 30 g/ha (Echinochloa crus-galli) [%] | pest or weed control at 250 g/ha (Echinochloa crus-galli; 250 g/ha) [%]
4-(2,6-Dimethoxy-4-prop-1-ynyl-phenyl)-2,2,6,6-tetramethyl-tetrahydropyran-3,5-dione [Compound A2] | 10 | 90 | 90 | 70 | 0 | 70 | – | – | – | – | – | – | – | – | – | – | – | –
CC#Cc1ccc(C2C(=O)C3CCC(C3)C2=O)c(OC)c1 (centres unmarked) [Compound A1, 3-(2-methoxy-4-prop-1-ynyl-phenyl)bicyclo[3.2.1]octane-2,4-dione] | – | – | – | – | – | – | 10 | 20 | 100 | 100 | 90 | 100 | 100 | 100 | 30 | 50 | 100 | 100
CC#Cc1cc(OC)c(C2C(=O)C3CCC(C3)C2=O)c(C(F)(F)F)c1 (centres unmarked) [Compound A3, 3-[2-methoxy-4-prop-1-ynyl-6-(trifluoromethyl)phenyl]bicyclo[3.2.1]octane-2,4-dione] | – | – | – | – | – | – | 0 | 0 | 40 | 70 | 70 | 90 | 90 | 90 | 0 | 0 | 70 | 100
CC#Cc1ccc(C2C(=O)C3CCC(C3)C2=O)c(OCC(F)(F)F)c1 (centres unmarked) [Compound A4] | – | – | – | – | – | – | 0 | 0 | 10 | 30 | 40 | 70 | 30 | 60 | 0 | 0 | 20 | 40
CC#Cc1ccc(C2C(=O)C3CCC(C3)C2=O)c(OC(F)F)c1 (centres unmarked) [Compound A5] | – | – | – | – | – | – | 0 | 0 | 50 | 80 | 60 | 90 | 100 | 100 | 0 | 0 | 90 | 100
CC#Cc1ccc(C2C(=O)C3CCC(C3)C2=O)c(OCCC)c1 (centres unmarked) [Compound A6] | – | – | – | – | – | – | 0 | 0 | – | – | 10 | 50 | 40 | 80 | 0 | 0 | 40 | 70
CC#Cc1cc(OC)c(C2C(=O)C3CCC(C3)C2=O)c(OC)c1 (centres unmarked) [Compound A7] | – | – | – | – | – | – | 0 | 10 | 90 | 100 | 100 | 100 | 100 | 100 | 0 | 0 | 100 | 100
CC#Cc1ccc(C2C(=O)C3CCC(C3)C2=O)c(OC(F)(F)F)c1 (centres unmarked) [Compound A8] | – | – | – | – | – | – | – | 80 | – | 100 | – | 100 | – | 100 | – | 10 | – | 100
CC#Cc1ccc(C2C(=O)CC(CCSC)CC2=O)c(OC)c1 (centres unmarked) [Compound A9] | – | – | – | – | – | – | 20 | 40 | 30 | 90 | 80 | 90 | 90 | 100 | 0 | 20 | 80 | 90
CC#Cc1ccc(C2C(=O)CCCC2=O)c(OC)c1 [Compound A10] | – | – | – | – | – | – | 0 | 10 | 0 | 70 | 60 | 70 | 90 | 90 | 10 | 20 | 20 | 30
CC#Cc1cc(OC)c(C2C(=O)CCCC2=O)c(OC)c1 [Compound A11, 2-(2,6-dimethoxy-4-prop-1-ynyl-phenyl)cyclohexane-1,3-dione] | – | – | – | – | – | – | 0 | 0 | 70 | 90 | 100 | 100 | 100 | 100 | 10 | 30 | 100 | 100
CC#Cc1ccc(C2C(=O)CC3(CCOCC3)CC2=O)c(OC)c1 [Compound A12] | – | – | – | – | – | – | 0 | 20 | 90 | 100 | 100 | 100 | 100 | 100 | 0 | 30 | 100 | 100
CC#Cc1ccc(C2C(=O)C3CCC(C3)C2=O)c(OCC)c1 (centres unmarked) [Compound A14] | – | – | – | – | – | – | 0 | 0 | – | – | 50 | 90 | 70 | 90 | 0 | 0 | 70 | 100
CC#Cc1ccc(C2C(=O)C3CCC(C3)C2=O)c(OCCOC)c1 (centres unmarked) [Compound A15, 3-[2-(2-methoxyethoxy)-4-prop-1-ynyl-phenyl]bicyclo[3.2.1]octane-2,4-dione] | – | – | – | – | – | – | 0 | 0 | 10 | 20 | 50 | 80 | 40 | 80 | 0 | 0 | 10 | 40
CC#Cc1ccc(C2C(=O)C3CCC(C3)C2=O)c(CCC)c1 (centres unmarked) [Compound A16, 3-(2-propyl-4-prop-1-ynyl-phenyl)bicyclo[3.2.1]octane-2,4-dione] | – | – | – | – | – | – | – | 0 | – | 100 | – | 100 | – | 100 | – | 0 | – | 100
CC#Cc1ccc(C2C(=O)C3CCC(C3)C2=O)c(CC)c1 (centres unmarked) [Compound A17] | – | – | – | – | – | – | – | 50 | – | 100 | – | 90 | – | 100 | – | 0 | – | 100
